From patent US20200345761A1, “PREVENTIVE AND/OR THERAPEUTIC AGENT FOR DEMENTIA” (MITOS CO., LTD., priority 2017, published 2020)

Columns and labels:
[1] = inhalation of H2 gas (3%) containing 21% oxygen; cited from earlier work
[2] = tested on: Alzheimer-type dementia patients
Description: Patients were selected on the basis of the following three criteria.
(1) Deterioration in the score occurs such that the ADAS-cog score based on formula [70−(MMSE×2.33)] (J. Caro et al., BMC Neurol 2002; 2:6.) or the ADAS-cog score calculated in terms of MMSE (Mini-Mental State Examination) exceeds 10.
Finally, 11 patients were selected, and treated with H2 gas.
Since the probability of suffering complications increases as the concentration of lithium in blood increases, the dosage of lithium carbonate was reduced (W. S. Waring, Toxicol Rev 2006; 25:221-230.). The patients of the treatment group were given oral administration of a 200 mg tablet of lithium carbonate (Li2CO3) (Mitsubishi Tanabe Pharma Corporation) twice a day and inhalation of 3% H2 twice a day. The test period was 6 months. As the gas containing H2, H2 gas (3%) containing 21% oxygen was generated using a portable H2 generator (Nishijima/Ecore Gas Hydrogen Generator) (H. Ono et al., J Stroke Cerebrovasc Dis 2017; 26:2587-2594.). […] Since lithium carbonate is used as a therapeutic agent for depression and mania (bipolar disorder), and it was reported that patients who ingested lithium carbonate less likely developed dementia, lithium carbonate was used in this Example.
The patients were evaluated by a blind method using the ADAS-cog score.
The ADAS-cog test was conducted every 1 to 2 months. The efficacy of treatment with respect to the ADAS-cog score was determined by comparing the ADAS-cog score at the start of the test with two or three tests during treatment.

dementia patients = settings: hydrogen gas about 3 to 4% inhaled 1 hour twice a day, 6-month treatment period, six patients
Description: Patients (outpatients in Iryohojin Shadanshinwakai Nishijima Byoin (Numazu-shi, Shizuoka)) in whom rapid deterioration (deterioration by 3 or more points over 1 year) in a cognitive function test such as MMSE or ADAS-cog occured although existing four agents for dementia were used over a long period of time, and improvement is not attained by other ordinary treatment methods.
Patients for whom it is considered difficult to repeatedly inhale hydrogen gas over a long period of time because of severe medical disease, chronic chest disease (chronic obstructive pulmonary disease (COPD), asthma or the like), mouth inflammation or the like.
Patients for whom it is determined from a score in the ADAS-cog cognitive function test that a therapeutic effect is achieved.

Alzheimer-type dementia = settings: cited from earlier work
[3] = 11 patients including the unresponsive patient, at completion of H2 treatment

Q: What does the source list for `[HH]` [H2, hydrogen gas]?
A: Blood concentration [1]: confirmed to increase; Average change of ADAS-cog score with respect to the initial score [2, 3]: −3.4; Average change of ADAS-cog score with respect to the worst score [2, 3]: −8.5; Patients whose ADAS-cog score was improved (decreased) from that at the start time ([2]; at the end of the H2 treatment period, 11 patients): seven; Worst score: B (ADAS-cog), average ([2]; average of 11 patients): 39.2; Final score: C (ADAS-cog), average ([2]; average of 11 patients at completion of H2 treatment): 30.7; Patients with improvement in the ADAS-cog score ([2]; combination therapy with H2 and lithium, Alzheimer-type dementia patients): 10 out of 11; Therapeutic effect judged from ADAS-cog score (effective cases) (dementia patients): effective in all of the six patients

Q: For `COc1cc2c(cc1OC)C(=O)C(CC1CCN(Cc3ccccc3)CC1)C2` (centres unmarked) [Donepezil], which “ADAS-cog score of the administration group” value (Alzheimer-type dementia; after 6 months) is on record?
A: turned back to the initial value

Q: And the “Change of ADAS-cog score” value (Alzheimer-type dementia; after 6 weeks)?
A: −3 points

Q: For `O=C([O-])[O-].[Li+].[Li+]` [lithium, lithium carbonate, reference compound], which “Cognitive function (ADAS-cog) with lithium used alone” value ([2]; after H2 treatment was stopped, lithium alone) is on record?
A: the cognitive function was not improved
